Assay results published in ChEMBL document CHEMBL5030565, “Stapled Peptides Targeting SARS-CoV-2 Spike Protein HR1 Inhibit the Fusion of Virus to Its Cell Receptor” (J Med Chem, 2021).
The source made the active and inactive calls. No cut-off for these calls is given here.

Tests used:
SARS-CoV-2 [1] = experiment: Antiviral activity against pseudotyped SARS-CoV-2 infected in Huh7 cells expressing hACE2 at 10 uM preincubated for 1 hr followed by cell infection measured after 2 days by bright-Glo luciferase assay; type: functional, Severe acute respiratory syndrome coronavirus 2, Huh-7; details: time 49 hrs
SARS-CoV-2 [2] = experiment: Antiviral activity against SARS-CoV-2 infected in Vero E6 cells assessed as reduction in viral replication at 12.5 uM preincubated for 30 mins followed by viral infection measured after 72 hrs by crystal violet staining based plaque assay; type: functional, Severe acute respiratory syndrome coronavirus 2; set-up: scale not given: the % may be the effect or the level left
SARS-CoV-2 [3] = experiment: Antiviral activity against pseudotyped SARS-CoV-2 infected in Huh7 cells expressing hACE2 preincubated for 1 hr followed by cell infection measured after 2 days by bright-Glo luciferase assay; type: functional, organism-based; details: Severe acute respiratory syndrome coronavirus 2, Huh-7
[4] = target: Spike glycoprotein (Severe acute respiratory syndrome coronavirus 2) (UniProt P0DTC2); experiment: Inhibition of SARS-CoV-2 spike glycoprotein expressed in HEK293T cells transfected with pAAV-CAG-HnCovS-RFP assessed as inhibition of membrane fusion to Huh-7 cells expressing hACE2 at 30 uM measured after 4 hrs by cell-cell fusion based fluorescence assay; type: functional
SARS-CoV-2 [5] = experiment: Antiviral activity against SARS-CoV-2 infected in Vero E6 cells assessed as reduction in viral replication preincubated for 30 mins followed by viral infection measured after 72 hrs by crystal violet staining based plaque assay; type: functional, organism-based; details: Severe acute respiratory syndrome coronavirus 2, Vero C1008
SARS-CoV-2 [6] = experiment: Antiviral activity against pseudotyped SARS-CoV-2 infected in Calu-3 cells at higher concentration; type: functional, organism-based; details: Severe acute respiratory syndrome coronavirus 2
chymotrypsin = chymotrypsin (Homo sapiens, UniProt P17538+P40313+Q6GPI1+Q99895); experiment: Stability of the compound in PBS at pH 7.4 assessed as chymotrypsin (unknown origin)-mediated proteolysis by measuring remaining compound after 12 hrs by HPLC analysis; type: ADME, protein assay; details: read-out: Stability

Compound	Activity (SARS-CoV-2 [1]) [%]	Activity (SARS-CoV-2 [2]) [%]	EC50 (SARS-CoV-2 [3]) [µM]	inhibition [4]	EC50 (SARS-CoV-2 [5]) [µM]	Activity (SARS-CoV-2 [6])	remaining at 12 h (chymotrypsin) [%]
CC[C@H](C)[C@H](NC(=O)CNC(=O)[C@H](CO)NC(=O)[C@@H](NC(=O)[C@H](CC(=O)O)NC(C)=O)[C@@H](C)CC)C(=O)N[C@@H](CC(N)=O)C(=O)N[C@@H](C)C(=O)N[C@@H](CO)C(=O)N[C@H](C(=O)N[C@H](C(=O)N[C@@H](CC(N)=O)C(=O)N[C@H](C(=O)N[C@@H](CCC(N)=O)C(=O)N[C@@H](CCCCN)C(=O)N[C@@H](CCC(=O)O)C(=O)NC1(C)CCC/C=C\CCCC(C)(C(=O)NC(CCC(=O)O)C(=O)N[C@H](C(=O)N[C@@H](C)C(=O)N[C@@H](CCCCN)C(=O)N[C@@H](CC(N)=O)C(=O)N[C@@H](CC(C)C)C(=O)N[C@@H](CC(N)=O)C(=O)N[C@@H](CCC(=O)O)C(=O)N[C@@H](CO)C(=O)N[C@@H](CC(C)C)C(=O)N[C@H](C(=O)N[C@@H](CC(=O)O)C(=O)N[C@@H](CC(C)C)C(=O)N[C@@H](CCC(N)=O)C(=O)N[C@@H](CCC(=O)O)C(=O)N[C@@H](CC(C)C)C(N)=O)[C@@H](C)CC)C(C)C)NC(=O)[C@H](CC(C)C)NC(=O)[C@H](CCCNC(=N)N)NC(=O)[C@H](CC(=O)O)NC1=O)[C@@H](C)CC)C(C)C)C(C)C (stereo not given in full)	50.8	25	14.6	–	–	–	–
CC[C@H](C)[C@H](NC(=O)CNC(=O)[C@H](CO)NC(=O)[C@@H](NC(=O)[C@H](CC(=O)O)NC(C)=O)[C@@H](C)CC)C(=O)N[C@@H](CC(N)=O)C(=O)N[C@@H](C)C(=O)N[C@@H](CO)C(=O)N[C@H](C(=O)N[C@H](C(=O)N[C@@H](CC(N)=O)C(=O)N[C@H](C(=O)N[C@@H](CCC(N)=O)C(=O)N[C@@H](CCCCN)C(=O)N[C@@H](CCC(=O)O)C(=O)N[C@H](C(=O)N[C@@H](CC(=O)O)C(=O)N[C@@H](CCCNC(=N)N)C(=O)N[C@@H](CC(C)C)C(=O)N[C@@]1(C)CCC/C=C\CCC[C@@](C)(C(=O)N[C@@H](CC(N)=O)C(=O)N[C@@H](CC(C)C)C(=O)N[C@@H](CC(N)=O)C(=O)N[C@@H](CCC(=O)O)C(=O)N[C@@H](CO)C(=O)N[C@@H](CC(C)C)C(=O)N[C@H](C(=O)N[C@@H](CC(=O)O)C(=O)N[C@@H](CC(C)C)C(=O)N[C@@H](CCC(N)=O)C(=O)N[C@@H](CCC(=O)O)C(=O)N[C@@H](CC(C)C)C(N)=O)[C@@H](C)CC)NC(=O)[C@H](C)NC(=O)[C@H](C(C)C)NC(=O)[C@H](CCC(=O)O)NC1=O)[C@@H](C)CC)[C@@H](C)CC)C(C)C)C(C)C	69.7	55	4.05	Active	6.56	Active	> 80
